Results on 2 molecules are retold here after US20050282743A1, “Molecular interactions in cells” (Arbor Vita Corporation, priority 2001, published 2005).

Ends that are not written are not given here. * marks the point of attachment. Biotin = O=C1N[C@H]2[C@H](CS[C@H]2CCCCC(=O)*)N1

The assay has as its target T1, PDZ protein (GST-PDZ fusion) (Homo sapiens, UniProt Q9ULJ8).
T1 construct: made in house; host or cells: E. coli (DH5alpha, BL21 or JM109)
Nature of the assay: G' assay (10 uM PL peptide), results of TABLE 7 and TABLE 12. It is filed as binding. Particulars: PDZ KIAA1222, PDZ Domain 1. The gist of the method:
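Biotin-PL peptide (N-term label), 10 uM vs GST-PDZ; protein 5 ug/ml by default. A450 nm binned: 1 = 0-1, 2 = 1-2, 3 = 2-3, 4 = 3-4, 5 = >4 on >2 repeats, 0 = no binding.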

T1 sequence (Q9ULJ8 whole entry, the tested form may be a part): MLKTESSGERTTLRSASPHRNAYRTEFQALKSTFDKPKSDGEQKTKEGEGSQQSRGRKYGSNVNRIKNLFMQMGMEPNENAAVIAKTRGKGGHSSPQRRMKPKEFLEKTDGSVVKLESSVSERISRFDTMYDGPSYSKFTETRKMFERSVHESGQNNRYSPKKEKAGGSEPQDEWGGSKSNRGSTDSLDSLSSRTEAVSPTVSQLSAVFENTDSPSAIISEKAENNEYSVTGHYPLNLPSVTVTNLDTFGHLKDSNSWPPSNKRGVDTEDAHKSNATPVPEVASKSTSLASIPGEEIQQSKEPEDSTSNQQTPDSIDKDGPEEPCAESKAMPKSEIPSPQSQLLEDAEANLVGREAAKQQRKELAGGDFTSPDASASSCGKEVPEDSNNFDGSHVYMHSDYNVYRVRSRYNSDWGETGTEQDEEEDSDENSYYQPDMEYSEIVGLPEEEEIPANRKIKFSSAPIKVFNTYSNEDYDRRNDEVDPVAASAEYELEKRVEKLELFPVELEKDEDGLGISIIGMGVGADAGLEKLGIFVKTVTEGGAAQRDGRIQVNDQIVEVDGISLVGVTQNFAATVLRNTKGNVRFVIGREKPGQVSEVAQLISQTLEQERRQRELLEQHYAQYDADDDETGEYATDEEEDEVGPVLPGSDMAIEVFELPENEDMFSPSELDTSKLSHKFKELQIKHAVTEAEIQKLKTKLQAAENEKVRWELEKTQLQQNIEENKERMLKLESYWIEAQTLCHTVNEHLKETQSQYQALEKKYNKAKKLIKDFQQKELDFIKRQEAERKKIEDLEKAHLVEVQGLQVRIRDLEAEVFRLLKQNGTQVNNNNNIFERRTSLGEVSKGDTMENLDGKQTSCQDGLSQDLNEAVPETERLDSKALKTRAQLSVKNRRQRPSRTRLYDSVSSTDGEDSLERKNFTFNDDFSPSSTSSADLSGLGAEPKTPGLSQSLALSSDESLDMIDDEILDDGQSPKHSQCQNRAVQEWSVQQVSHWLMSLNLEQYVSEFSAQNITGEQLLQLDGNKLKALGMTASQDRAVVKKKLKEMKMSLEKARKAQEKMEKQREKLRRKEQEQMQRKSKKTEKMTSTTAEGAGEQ

For the molecule `CC[C@H](C)[C@H](NC(=O)[C@H](CCCCN)NC(=O)[C@@H](NC(=O)[C@H](CO)NC(=O)[C@@H]1CCCN1C(=O)[C@H](Cc1ccccc1)NC(=O)[C@@H](NC(=O)[C@@H](NC(=O)[C@H](CCCNC(=N)N)NC(=O)[C@H](CCC(=O)O)NC(=O)[C@H](CC(C)C)NC(=O)[C@H](CC(C)C)NC(=O)[C@H](CC(C)C)NC(=O)[C@@H](NC(=O)CNC(=O)[C@@H](NC(=O)CCCC[C@@H]1SC[C@@H]2NC(=O)N[C@@H]21)C(C)C)[C@@H](C)O)C(C)C)[C@@H](C)CC)C(C)C)C(=O)N[C@@H](C)C(=O)N[C@H](C(=O)N[C@@H](CC(C)C)C(=O)N[C@H](C(=O)O)C(C)C)[C@@H](C)O` [Adenovirus E4 Type9], the Classification (PL peptide 10 uM) is recorded as 1 (A450 nm 0-1).

Regarding “KTMPAAMFRLLTGQETPLYI (Biotin-KTMPAAMFRLLTGQETPLYI) [MINT-2]”, the Classification is listed as 1 (A450 nm 0-1).
